Results on three compounds are retold here after EPA's ToxValDB 9.5.

Values joined by “and” are separate entries in the source; they are usually repeats but may differ in a detail not shown here. Identical values can stand only once.

This data set concerns Rattus norvegicus.
Where [1] appears, read: subchronic, duration: 13 weeks, oral, diet, F, Crl:CD(SD) BR, Blood: Hematocrit (HCT) + Blood: Mean Corpuscular Volume (MCV) + Brain: Brain Weight, Absolute + Kidney: Urea Nitrogen + Liver: Cholesterol….
Setting [2] is: subchronic, duration: 13 weeks, oral, diet, F, Crl:CD(SD) BR, Blood: Red Blood Cell (RBC) + Kidney: Kidney Weight, Relative + Liver: Hepatocellular Hypertrophy, Centrilobular + Liver: Liver Weight, ….
Where [3] appears, read: subchronic, duration: 13 weeks, oral, diet, F, Sprague-Dawley, Endocrine: Adrenal: Adrenal Gland Weight, Absolute + Endocrine: Adrenal: Adrenal Gland Weight, Relative to Brain + Hepatic: Liver: Liver ….
The mark [4] stands for this setting: subchronic, duration: 13 weeks, oral, diet, F, Sprague-Dawley, Hepatic: Liver: Total Bilirubin (TBILI) + Immune: Blood: Monocytes %.
Setting [5] is: subchronic, duration: 13 weeks, oral, diet, M, Crl:CD(SD) BR, Blood: Calcium (CA), Blood + Blood: Globulin (G), Blood + Brain: Brain Weight, Relative + Kidney: Kidney Weight, Relative + Liver: ….
The mark [6] stands for this setting: subchronic, duration: 13 weeks, oral, diet, M, Crl:CD(SD) BR, Blood: Glucose (GLU), Blood + Blood: Hematocrit (HCT) + Kidney: Kidney Weight, Absolute + Kidney: Kidney Weight, Relative to Brain + Kidney….
Setting [7] is: subchronic, duration: 13 weeks, oral, diet, M, Sprague-Dawley, Cardiovascular: Heart: Heart, Degeneration/Necrosis + Endocrine: Adrenal: Adrenal Gland Weight, Absolute + Endocrine: Thyroid/Parathyroid: ….
The mark [8] stands for this setting: subchronic, duration: 13 weeks, oral, diet, M, Sprague-Dawley, Endocrine: Adrenal: Adrenal Gland Weight, Relative + Endocrine: Adrenal: Adrenal Gland Weight, Relative to Brain + Endocrine: Adrenal: ….
Where [9] appears, read: subchronic, duration: 13 weeks, oral, diet, M, Sprague-Dawley, Immune: Blood: Basophils.
[10] abbreviates: chronic, duration: 123 days, oral, gavage, F, Wistar, Heart: Heart Weight, Relative.
Where [11] appears, read: chronic, duration: 123 days, oral, gavage, F, Wistar, Kidney: Kidney, Cortical Tubular Dilation, Multifocal + Whole Body: Body Weight Change.
[12] abbreviates: reproduction developmental, duration: 90 days, oral, gavage, M, Crl:WI (Han), generation: P0, P0: General Toxicity: Whole Body: Body Weight Change + P0: General Toxicity: Whole Body: Body Weight, Absolute + P0: General Toxicity: Whole….
Where [13] appears, read: reproduction developmental, duration: 123 days, oral, gavage, F, Crl:WI (Han), generation: P0, P0: General Toxicity: Whole Body: Body Weight Change + P0: General Toxicity: Whole Body: Body Weight, Absolute + P0: General Toxicity: Whole….
The mark [14] stands for this setting: subchronic, duration: 90 days, oral, gavage, M, Wistar, Kidney: Blood Urea Nitrogen (BUN), Blood + Kidney: Kidney, Cortical Tubular Dilation, Multifocal + Whole Body: Body Weight Change.

The term NOAEL denotes the highest dose or exposure tested at which no adverse effect was seen. For orientation: LOAEL means the lowest dose or exposure tested at which an adverse effect was seen. On to `CN(CCO)S(=O)(=O)C(F)(F)C(F)(F)C(F)(F)C(F)(F)C(F)(F)C(F)(F)C(F)(F)C(F)(F)F` [N-Methyl-N-(2-hydroxyethyl)perfluorooctanesulfonamide], for which the NEL was 7.8 mg/kg-day and 7.27 mg/kg-day (chronic, duration: 14 weeks, oral, diet, M/F, Crl:CD(SD) BR, Eye: Ophthalmology, Unspecified + Whole Body: Clinical Observations); 9.6 mg/kg-day and 7.7 mg/kg-day (subchronic, duration: 13 weeks, oral, diet, F, Crl:CD(SD) BR, Adrenal: Adrenal Cortex Histopathology + Adrenal: Adrenal Gland Weight, Absolute + Adrenal: Adrenal Gland Weight, Relative + Adrenal: …); 2.88 mg/kg-day and 2.59 mg/kg-day under setting [1]; 0.288 mg/kg-day and 0.24 mg/kg-day under setting [2]; 6.84 mg/kg-day and 9.6 mg/kg-day (subchronic, duration: 13 weeks, oral, diet, M, Crl:CD(SD) BR, Adrenal: Adrenal Cortex Histopathology + Adrenal: Adrenal Gland Weight, Absolute + Adrenal: Adrenal Gland Weight, Relative + Adrenal: …); 0.203 mg/kg-day and 0.288 mg/kg-day under setting [5]. The NEL under setting [6] was 2.04 mg/kg-day and 2.88 mg/kg-day. The LEL is 9.6 mg/kg-day and 7.7 mg/kg-day under setting [1]; 2.88 mg/kg-day and 2.59 mg/kg-day under setting [2]; 0.288 mg/kg-day and 0.24 mg/kg-day (subchronic, duration: 13 weeks, oral, diet, F, Crl:CD(SD) BR, Brain: Brain Weight, Relative + Whole Body: Body Weight Change); 2.04 mg/kg-day and 2.88 mg/kg-day under setting [5]; 6.84 mg/kg-day and 9.6 mg/kg-day under setting [6]; 0.203 mg/kg-day and 0.288 mg/kg-day (subchronic, duration: 13 weeks, oral, diet, M, Crl:CD(SD) BR, Whole Body: Body Weight Change). Further, the NOAEL by setting is: (subchronic, duration: 13 weeks, oral, diet, F, Sprague-Dawley, Cardiovascular: Aorta: Aorta Histopathology + Cardiovascular: Heart: Heart, Degeneration/Necrosis + Endocrine: Adrenal: Adrenal Cortex …) 0.203 mg/kg-day; under setting [3], 2.04 mg/kg-day; (subchronic, duration: 13 weeks, oral, diet, F, Sprague-Dawley, Endocrine: Adrenal: Adrenal Medulla Histopathology + Endocrine: Thyroid/Parathyroid: Thyroid/Parathyroid Gland Weight, Relative to Brain + …) 6.84 mg/kg-day; under setting [4], 1.92 mg/kg-day; (subchronic, duration: 13 weeks, oral, diet, M, Sprague-Dawley, Cardiovascular: Aorta: Aorta Histopathology + Endocrine: Adrenal: Adrenal Cortex Histopathology + Endocrine: Pituitary: Pituitary Gland …) 6.84 mg/kg-day; under setting [7], 2.04 mg/kg-day. Also, the NOAEL is, setting by setting: under setting [8], 0.203 mg/kg-day; under setting [9], 1.92 mg/kg-day. The LOAEL is, setting by setting: under setting [3], 6.84 mg/kg-day; (subchronic, duration: 13 weeks, oral, diet, F, Sprague-Dawley, General Toxicity: Whole Body: Body Weight Change + General Toxicity: Whole Body: Body Weight, Absolute + Hematologic: Blood: Inorganic …) 0.203 mg/kg-day; under setting [4], 19.2 mg/kg-day; (subchronic, duration: 13 weeks, oral, diet, M, Sprague-Dawley, Cardiovascular: Aorta: Aorta Histopathology + Cardiovascular: Heart: Heart, Degeneration/Necrosis + Endocrine: Adrenal: Adrenal Cortex …) 0.203 mg/kg-day; under setting [7], 6.84 mg/kg-day; under setting [8], 2.04 mg/kg-day. Also, the LOAEL runs as follows: (subchronic, duration: 13 weeks, oral, diet, M, Sprague-Dawley, Hematologic: Blood: Hematocrit (HCT) + Hematologic: Blood: Mean Corpuscular Hemoglobin Concentration (MCHC) + Hepatic: Liver: Aspartate …) 0.203 mg/kg-day; under setting [9], 19.2 mg/kg-day.
`FC(F)(F)N1C(F)(F)C(F)(F)OC(F)(F)C1(F)F` [Perfluoro(N-methylmorpholine)]: the NEL runs as follows: (subchronic, duration: 13 weeks, inhalation, M/F, Sprague-Dawley, Blood: Hematology, Unspecified + Eye: Ophthalmology, Unspecified + Multi-organ: Clinical Chemistry, Unspecified + Multi-organ: …) 607000 mg/m3; (subchronic, duration: 30 days, oral, gavage, M/F, Crl:CD(SD) BR, Blood: Hematology, Unspecified + Blood: Red Cell Morphology + Multi-organ: Clinical Chemistry, Unspecified + Multi-organ: Histopathology, …) 2000 mg/kg-day.
In the case of `O=S(=O)(O)CCC(F)(F)C(F)(F)C(F)(F)C(F)(F)C(F)(F)C(F)(F)F` [6:2 Fluorotelomer sulfonic acid], the NEL (chronic, duration: 123 days, oral, gavage, F, Wistar, Blood: Albumin/Globulin (A/G) Ratio + Blood: Basophils + Blood: Calcium (CA), Blood + Blood: Chloride (CL), Blood + Blood: Cholesterol (CHOL…) came out at 45 mg/kg-day; the NEL under setting [10] came out at 5 mg/kg-day; the NEL under setting [11] was found to be 15 mg/kg-day; the NEL (developmental, duration: 34 days, parental, M/F, Wistar, generation: F1, F1: Nipples: Nipple Retention + F1: Thyroid: Thyroid Gland Weight, Absolute + F1: Thyroid: Thyroid Gland Weight, Relative + F1: Thyroid: …) stood at 45 mg/kg-day; the NEL (reproduction developmental, duration: 90 days, oral, gavage, M, Wistar, Whole Body: Days of Cohabitation + Whole Body: Fertility Index + Whole Body: Percent Mating) was 45 mg/kg-day; the NEL (reproduction developmental, duration: 123 days, oral, gavage, F, Wistar, Ovary: Ovary Histopathology + Ovary: Ovary Weight, Absolute + Uterus: Estrous Cycle, Length + Uterus: Post-Implantation Loss + Uterus: Pre-…) amounted to 45 mg/kg-day. Besides, the NEL is, setting by setting: (reproduction developmental, duration: 123 days, oral, gavage, F, Wistar, generation: P0, P0: Uterus: Abortions + P0: Uterus: Resorptions, Mean/Litter + P0: Vagina: Uterus (With Cervix) Weight, Absolute + P0: Vagina: Vagina …) 45 mg/kg-day; (subchronic, duration: 90 days, oral, gavage, M, Wistar, Blood: Albumin/Globulin (A/G) Ratio + Blood: Basophils + Blood: Calcium (CA), Blood + Blood: Chloride (CL), Blood + Blood: Cholesterol (CHOL…) 45 mg/kg-day; under setting [14], 15 mg/kg-day. In addition, the LEL runs as follows: under setting [10], 15 mg/kg-day; under setting [11], 45 mg/kg-day; under setting [14], 45 mg/kg-day; (subchronic, duration: 90 days, oral, gavage, M, Wistar, Kidney: Kidney Weight, Absolute + Kidney: Kidney Weight, Relative + Liver: Albumin (A), Blood + Whole Body: Total Protein (TP), Blood) 5 mg/kg-day. The NOAEL reads like this: (developmental, duration: 34 days, parental, M/F, Crl:WI (Han), generation: F1, F1: Developmental: Nipples: Nipple Retention + F1: Developmental: Thyroid: Thyroid Gland Weight, Absolute + F1: Developmental: Thyroid: …) 45 mg/kg-day; under setting [12], 15 mg/kg-day; (reproduction developmental, duration: 90 days, oral, gavage, M, Crl:WI (Han), generation: P0, P0: Reproductive: Whole Body: Days of Cohabitation + P0: Reproductive: Whole Body: Fertility Index + P0: Reproductive: Whole Body: Percent …) 45 mg/kg-day; (reproduction developmental, duration: 123 days, oral, gavage, F, Crl:WI (Han), generation: P0, P0: Developmental: Uterus: Abortions + P0: Developmental: Uterus: Litter Loss + P0: Reproductive: Vagina: Uterus (With Cervix) Weight, …) 45 mg/kg-day; (reproduction developmental, duration: 123 days, oral, gavage, F, Crl:WI (Han), generation: P0, P0: Developmental: Uterus: Post-Implantation Loss + P0: Developmental: Uterus: Pre-Implantation Loss + P0: Reproductive: Ovary: Ovary …) 45 mg/kg-day; under setting [13], 15 mg/kg-day. Further, the LOAEL under setting [12] worked out at 45 mg/kg-day and the lowest-observed-adverse-effect level (LOAEL) under setting [13] came to 45 mg/kg-day.
